Measurements from US9174952B2, “Substituted 3-thiazoloamino-propionic acid derivatives and their use as pharmaceuticals” (SANOFI, priority 2011, dated 2015).

Target: T1, Recombinant human cathepsin A (Homo sapiens, UniProt P10619)
T1 construct: Recombinant human cathepsin A (residues 29-480, with a C-terminal 10-His tag); 10-His (C); purchased R&D Systems 1049-SE
T1 sequence (P10619 29-326 limits assumed): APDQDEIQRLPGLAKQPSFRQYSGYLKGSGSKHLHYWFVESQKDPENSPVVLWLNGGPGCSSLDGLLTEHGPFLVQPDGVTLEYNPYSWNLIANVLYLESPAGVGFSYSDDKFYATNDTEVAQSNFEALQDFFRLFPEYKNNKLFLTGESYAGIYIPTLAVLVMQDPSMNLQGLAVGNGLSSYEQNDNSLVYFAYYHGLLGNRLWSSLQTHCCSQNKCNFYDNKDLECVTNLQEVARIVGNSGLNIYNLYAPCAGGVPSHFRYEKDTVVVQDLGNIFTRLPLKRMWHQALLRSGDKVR
T1 sequence (P10619 327-480 limits assumed): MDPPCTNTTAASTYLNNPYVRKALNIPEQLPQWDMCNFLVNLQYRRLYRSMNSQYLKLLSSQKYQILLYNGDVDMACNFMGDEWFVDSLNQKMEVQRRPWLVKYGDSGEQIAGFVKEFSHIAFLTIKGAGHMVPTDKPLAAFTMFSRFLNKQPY
Test: Cathepsin A inhibitory activity
Assay type: biochemical
Details: activated recombinant human cathepsin A 833 ng/ml, Bodipy FL-labeled bradykinin substrate 2 μM, pH 5.5, room temperature
In short: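 Enzyme (residues 29-480, C-terminal His tag) pre-activated by cathepsin L at 37° C, then quenched with E-64. Compound preincubated 15 min at room temperature in 25 mM MES pH 5.5 with 5 mM DTT, then 2 μM Bodipy FL-bradykinin added for 15 min at 833 ng/ml enzyme. Product/substrate separated by microfluidic capillary electrophoresis; IC50 from multi-concentration inhibition.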

Question: For O=C(O)C[C@H](NC(=O)c1csc(-c2ccc(C(F)(F)F)cc2)n1)c1cccc(Cl)c1Cl [Example 16, (S)-3-(2,3-Dichloro-phenyl)-3-{[2-(4-trifluoromethyl-phenyl)-thiazole-4-carbonyl]-amino}-propionic acid], which IC50 is on record?
Answer: Its IC50 is 3020 nM.

Question: With O=C(N[C@@H](Cc1ccc(Cl)cc1)C(=O)O)c1csc(-c2ccc(C(F)(F)F)cc2)n1 [Example 107, (S)-3-(4-Chloro-phenyl)-2-{[2-(4-trifluoromethyl-phenyl)-thiazole-4-carbonyl]-amino}-propionic acid] as the molecule, how does the IC50 read?
Answer: Its IC50 is 3700 nM.

Question: For O=C(O)C[C@H](NC(=O)c1csc(-c2ccccc2)n1)c1cccc(Cl)c1 [Example 40, (S)-3-(3-Chloro-phenyl)-3-[(2-phenyl-thiazole-4-carbonyl)-amino]-propionic acid], which IC50 is on record?
Answer: The IC50 was 821 nM.

Question: Which IC50 does the source give for O=C(O)C[C@H](NC(=O)c1csc(-c2ccc(Cl)cc2)n1)c1cccc(F)c1 [Example 105, (S)-3-{[2-(4-Chloro-phenyl)-thiazole-4-carbonyl]-amino}-3-(3-fluoro-phenyl)-propionic acid] here?
Answer: The IC50 was 2960 nM.

Question: How did the IC50 turn out when O=C(O)C[C@H](NC(=O)c1csc(-c2ccc(C(F)(F)F)cc2)n1)c1ccccc1C(F)(F)F [Example 38, (S)-3-(2-Trifluoromethyl-phenyl)-3-{[2-(4-trifluoromethyl-phenyl)-thiazole-4-carbonyl]-amino}-propionic acid] was run?
Answer: Its IC50 is 23300 nM.

Question: O=C(O)CC(NC(=O)c1nc(-c2ccccc2)cs1)c1ccccc1Cl (stereo not shown) [Example 68, 3-(2-Chloro-phenyl)-3-[(4-phenyl-thiazole-2-carbonyl)-amino]-propionic acid] was tested. Which IC50 did it give?
Answer: Its IC50 is 455 nM.

Question: With Cc1ccccc1-c1nc(C(=O)N[C@@H](CC(=O)O)c2ccccc2)cs1 [Example 113, (S)-3-Phenyl-3-[(2-o-tolyl-thiazole-4-carbonyl)-amino]-propionic acid] as the molecule, how does the IC50 read?
Answer: Its IC50 is 322 nM.

Question: Cc1cccc([C@H](CC(=O)O)NC(=O)c2nc(-c3ccccc3)cs2)c1 [Example 3, (S)-3-[(4-Phenyl-thiazole-2-carbonyl)-amino]-3-m-tolyl-propionic acid] was tested. Which IC50 did it give?
Answer: The IC50 was 315 nM.

Question: O=C(NCC(C(=O)O)c1ccccc1)c1csc(-c2ccccc2F)n1 (stereo not shown) [Example 121, 3-{[2-(2-Fluoro-phenyl)-thiazole-4-carbonyl]-amino}-2-phenyl-propionic acid] was tested. Which IC50 did it give?
Answer: The IC50 was 12600 nM.

Question: With O=C(O)CC(NC(=O)c1csc(-c2cccc(Cl)c2)n1)C1CCCCC1 (stereo not shown) [Example 124, 3-{[2-(3-Chloro-phenyl)-thiazole-4-carbonyl]-amino}-3-cyclohexyl-propionic acid] as the molecule, how does the IC50 read?
Answer: The IC50 was 3420 nM.

Question: Which IC50 does the source give for O=C(NCC(C(=O)O)c1ccccc1)c1csc(-c2ccccc2Cl)n1 (stereo not shown) [Example 118, 3-{[2-(2-Chloro-phenyl)-thiazole-4-carbonyl]-amino}-2-phenyl-propionic acid] here?
Answer: The IC50 was 6040 nM.

Question: Which IC50 does the source give for COc1cccc([C@H](CC(=O)O)NC(=O)c2csc(-c3ccc(Cl)cc3)n2)c1OC [Example 101, (S)-3-{[2-(4-Chloro-phenyl)-thiazole-4-carbonyl]-amino}-3-(2,3-dimethoxy-phenyl)-propionic acid] here?
Answer: The IC50 was 1120 nM.

Question: Which IC50 does the source give for Cc1ccccc1-c1nc(C(=O)NC(CC(=O)O)C2CCCCC2)cs1 (stereo not shown) [Example 128, 3-Cyclohexyl-3-[(2-o-tolyl-thiazole-4-carbonyl)-amino]-propionic acid] here?
Answer: The IC50 was 810 nM.

Question: How did the IC50 turn out when O=C(O)CC(Cc1ccccc1)NC(=O)c1csc(-c2ccccc2Cl)n1 (stereo not shown) [Example 120, 3-{[2-(2-Chloro-phenyl)-thiazole-4-carbonyl]-amino}-4-phenyl-butyric acid] was run?
Answer: Its IC50 is 1450 nM.

Question: Which IC50 does the source give for Cc1ccccc1-c1nc(C(=O)N[C@@H](CC(=O)O)c2cccc(F)c2)cs1 [Example 47, (S)-3-(3-Fluoro-phenyl)-3-[(2-o-tolyl-thiazole-4-carbonyl)-amino]-propionic acid] here?
Answer: The IC50 was 280 nM.

Question: For Cc1ccccc1[C@H](CC(=O)O)NC(=O)c1csc(-c2cccc(Cl)c2Cl)n1 [Example 71, (S)-3-{[2-(2,3-Dichloro-phenyl)-thiazole-4-carbonyl]-amino}-3-o-tolyl-propionic acid], which IC50 is on record?
Answer: The IC50 was 126 nM.

Question: O=C(O)C[C@H](NC(=O)c1csc(-c2ccccc2F)n1)c1ccc(F)cc1 [Example 56, (S)-3-(4-Fluoro-phenyl)-3-{[2-(2-fluoro-phenyl)-thiazole-4-carbonyl]-amino}-propionic acid] was tested. Which IC50 did it give?
Answer: The IC50 was 1050 nM.

Question: With Cc1ccccc1[C@H](CC(=O)O)NC(=O)c1csc(-c2ccccc2)n1 [Example 63, (S)-3-[(2-Phenyl-thiazole-4-carbonyl)-amino]-3-o-tolyl-propionic acid] as the molecule, how does the IC50 read?
Answer: The IC50 was 61 nM.

Question: Cc1ccccc1-c1nc(C(=O)N[C@@H](CC(=O)O)c2ccccc2C)cs1 [Example 111, (S)-3-o-Tolyl-3-[(2-o-tolyl-thiazole-4-carbonyl)-amino]-propionic acid] was tested. Which IC50 did it give?
Answer: The IC50 was 106 nM.

Question: With O=C(NCC(C(=O)O)c1ccccc1)c1csc(-c2cccc(Cl)c2)n1 (stereo not shown) [Example 123, 3-{[2-(3-Chloro-phenyl)-thiazole-4-carbonyl]-amino}-2-phenyl-propionic acid] as the molecule, how does the IC50 read?
Answer: Its IC50 is greater than 10000 nM.

Question: With O=C(O)C[C@H](NC(=O)c1csc(-c2ccc(C(F)(F)F)cc2)n1)c1cccc(F)c1 [Example 50, (S)-3-(3-Fluoro-phenyl)-3-{[2-(4-trifluoromethyl-phenyl)-thiazole-4-carbonyl]-amino}-propionic acid] as the molecule, how does the IC50 read?
Answer: The IC50 was greater than 10000 nM.

Question: With Cc1ccc(-c2nc(C)c(C(=O)N[C@@H](CC(=O)O)c3ccccc3C)s2)cc1 [Example 70, (S)-3-[(4-Methyl-2-p-tolyl-thiazole-5-carbonyl)-amino]-3-o-tolyl-propionic acid] as the molecule, how does the IC50 read?
Answer: The IC50 was greater than 10000 nM.

Question: With O=C(O)C[C@H](NC(=O)c1csc(-c2cccc(Cl)c2)n1)c1cccc(Cl)c1Cl [Example 89, (S)-3-{[2-(3-Chloro-phenyl)-thiazole-4-carbonyl]-amino}-3-(2,3-dichloro-phenyl)-propionic acid] as the molecule, how does the IC50 read?
Answer: Its IC50 is 1020 nM.

Question: With O=C(O)C[C@H](NC(=O)c1nc(-c2ccccc2)cs1)c1ccc(F)cc1 [Example 51, (S)-3-(4-Fluoro-phenyl)-3-[(4-phenyl-thiazole-2-carbonyl)-amino]-propionic acid] as the molecule, how does the IC50 read?
Answer: The IC50 was 457 nM.

Question: For O=C(O)C[C@H](NC(=O)c1csc(-c2cccc(Cl)c2)n1)c1cccc(F)c1 [Example 94, (S)-3-{[2-(3-Chloro-phenyl)-thiazole-4-carbonyl]-amino}-3-(3-fluoro-phenyl)-propionic acid], which IC50 is on record?
Answer: Its IC50 is 3730 nM.

Question: How did the IC50 turn out when O=C(O)CC(NC(=O)c1csc(-c2ccc(C(F)(F)F)cc2)n1)C1CCCCC1 (stereo not shown) [Example 132, 3-Cyclohexyl-3-{[2-(4-trifluoromethyl-phenyl)-thiazole-4-carbonyl]-amino}-propionic acid] was run?
Answer: The IC50 was 11200 nM.

Question: O=C(O)C[C@H](NC(=O)c1csc(-c2ccccc2Cl)n1)c1cccc(Cl)c1Cl [Example 73, (S)-3-{[2-(2-Chloro-phenyl)-thiazole-4-carbonyl]-amino}-3-(2,3-dichloro-phenyl)-propionic acid] was tested. Which IC50 did it give?
Answer: The IC50 was 70 nM.

Question: Which IC50 does the source give for O=C(O)CC(Cc1ccccc1)NC(=O)c1csc(-c2ccc(C(F)(F)F)cc2)n1 (stereo not shown) [Example 135, 4-Phenyl-3-{[2-(4-trifluoromethyl-phenyl)-thiazole-4-carbonyl]-amino}-butyric acid] here?
Answer: Its IC50 is 22200 nM.

Question: Cc1ccccc1[C@H](CC(=O)O)NC(=O)c1csc(-c2ccccc2Cl)n1 [Example 82, (S)-3-{[2-(2-Chloro-phenyl)-thiazole-4-carbonyl]-amino}-3-o-tolyl-propionic acid] was tested. Which IC50 did it give?
Answer: Its IC50 is 30 nM.

Question: For O=C(O)C[C@H](NC(=O)c1csc(-c2ccccc2Cl)n1)c1ccccc1Cl [Example 29, (S)-3-(2-Chloro-phenyl)-3-{[2-(2-chloro-phenyl)-thiazole-4-carbonyl]-amino}-propionic acid], which IC50 is on record?
Answer: The IC50 was 100 nM.

Question: With O=C(O)C[C@H](NC(=O)c1csc(-c2ccccc2F)n1)c1ccccc1C(F)(F)F [Example 84, (S)-3-{[2-(2-Fluoro-phenyl)-thiazole-4-carbonyl]-amino}-3-(2-trifluoromethyl-phenyl)-propionic acid] as the molecule, how does the IC50 read?
Answer: Its IC50 is 1350 nM.

Question: Which IC50 does the source give for C[C@@](CC(=O)O)(NC(=O)c1nc(-c2ccccc2)cs1)c1ccccc1 [Example 4, (S)-3-Phenyl-3-[(4-phenyl-thiazole-2-carbonyl)-amino]-butyric acid] here?
Answer: Its IC50 is greater than 10000 nM.

Question: O=C(O)CC(NC(=O)c1csc(-c2ccccc2)n1)C1CCCCC1 (stereo not shown) [Example 129, 3-Cyclohexyl-3-[(2-phenyl-thiazole-4-carbonyl)-amino]-propionic acid] was tested. Which IC50 did it give?
Answer: Its IC50 is 1120 nM.

Question: Which IC50 does the source give for Cc1ccccc1-c1nc(C(=O)N[C@@H](CC(=O)O)c2ccc(F)cc2)cs1 [Example 54, (S)-3-(4-Fluoro-phenyl)-3-[(2-o-tolyl-thiazole-4-carbonyl)-amino]-propionic acid] here?
Answer: Its IC50 is 303 nM.

Question: How did the IC50 turn out when O=C(O)CC(Cc1ccccc1)NC(=O)c1csc(-c2ccccc2)n1 (stereo not shown) [Example 134, 4-Phenyl-3-[(2-phenyl-thiazole-4-carbonyl)-amino]-butyric acid] was run?
Answer: Its IC50 is 3420 nM.

Question: Which IC50 does the source give for Cc1ccccc1[C@H](CC(=O)O)NC(=O)c1csc(-c2ccccc2F)n1 [Example 87, (S)-3-{[2-(2-Fluoro-phenyl)-thiazole-4-carbonyl]-amino}-3-o-tolyl-propionic acid] here?
Answer: Its IC50 is 117 nM.

Question: With Cc1ccccc1[C@H](CC(=O)O)NC(=O)c1csc(-c2ccc(Cl)cc2)n1 [Example 109, (S)-3-{[2-(4-Chloro-phenyl)-thiazole-4-carbonyl]-amino}-3-o-tolyl-propionic acid] as the molecule, how does the IC50 read?
Answer: Its IC50 is 121 nM.
